“And” between values parts separate entries of the source, which are not always exact repeats. Equal values may be shown once.
What was measured:
SW48-PAR cells = experiment: MTT cell viability assay, SW48-PAR; type: cell-based, human; conditions: for cell viability: replicates, in % (unit assumed)
Description: (§1) Pancreatic cancer cell lines PANC-1 (cat. no. CRL-1469), SW1990 (cat. no. CRL-2172) were obtained from ATCC (American Type Culture Collection). Genetically modified isogeneic colon cancer cell lines SW48-PAR and SW48-G12D were obtained from Horizon Discovery Ltd. PANC-1 (human pancreatic cancer, KRas^G12D), SW1990 (human pancreatic cancer, KRas^G12D), SW48-PAR (human colon cancer; parental cell line KRas^wt), and SW48-G12D (human colon cancer; heterozygous knockin of the KRas^G12D activating mutation) cancer cell lines were cultured in Roswell Park Memorial Institute Medium (RPMI; Biosera, Nuaille, France), supplemented with 10% heat-inactivated Fetal Bovine Serum (FBS; Biosera), and with 1% Penicillin/Streptomycin (Biosera). Cells were cultured in sterile T75 flasks with ventilation cap (Sarstedt, Nümbrecht, Germany) at 37 °C in a humidified atmosphere with 5% CO2 in ESCO CelCulture Incubator (ESCO, Friedberg, Germany). Manipulations with the cells were performed in biosafety cabinet (laminar) ESCO Sentinel Gold class II model AC2-4E8 (ESCO).
(§2) After standard harvesting of the cells by trypsin-EDTA (Biosera), 7 × 10^3 cells per well depending on the cell line, were seeded in serum-containing growth medium to 96-well plates and incubated. After 24 h, cells were treated with various concentrations of fragments (32 nM–100 μM), dissolved in serum-containing medium, and incubated under standard conditions. Control wells were treated with medium. Final concentration of serum was 2.5%, final concentration of DMSO was 0.2%. Treatment was for 72 h continuously.
(§3) Afterwards, MTT assay was performed in order to determine cell viability, by adding 20 μL of MTT solution (5 mg/mL in PBS) to each well and after 2 h of incubation at 37 °C, the supernatant was removed. The formazan crystals were dissolved in 100 μL of a 1:1 solution of DMSO (Sigma-Aldrich):EtOH (Molar Chemicals) and the absorbance was measured after 15 min at λ = 570 nm by using a microplate reader (BioTek 800TS, Agilent, Santa Clara, CA, USA). The IC50 values of the fragments were calculated using GraphPad Prism 6 (GraphPad Software, San Diego, CA, USA). The experiments were done in triplicate, and each experiment was repeated two times.

SW48-G12D cells = experiment: MTT cell viability assay, SW48-G12D; type: cell-based, human; conditions: for cell viability: replicates, in % (unit assumed)
Description: as §1, §2, §3

Structure (SMILES): Cc1ncc(CO)c(CNC(=O)CCC2(C)N=N2)c1O [PhP072, Cc1ncc(CO)c(c1O)CNC(=O)CCC2(C)N=N2]
- Antiproliferative effect (SW48-PAR cells; MTT, 72 h): antiproliferative activity
- cell viability (SW48-PAR cells; [PhP072] 3.2e-8 M): 110.532 and 99.0425 and 106.761 and 103.567 and 100.905
- cell viability (SW48-PAR cells; [PhP072] 1.6e-7 M): 106.815 and 103.774 and 96.677 and 105.91 and 101.544 and 99.8403
- cell viability (SW48-PAR cells; [PhP072] 8e-7 M): 103.098 and 102.084 and 99.3805 and 101.65 and 100.905 and 100.16
- cell viability (SW48-PAR cells; [PhP072] 4e-6 M): 97.3529 and 105.125 and 97.3912 and 92.7061 and 92.8126
- cell viability (SW48-PAR cells; [PhP072] 2e-5 M): 98.3667 and 91.9459 and 92.9597 and 81.7386 and 78.0118 and 75.2433
- cell viability (SW48-PAR cells; [PhP072] 0.0001 M): 78.0907 and 76.0631 and 71.332 and 66.8313 and 68.322 and 64.4887
- Antiproliferative effect (SW48-G12D cells; MTT, 72 h): antiproliferative activity
- cell viability (SW48-G12D cells; [PhP072] 3.2e-8 M): 102.762 and 97.2381 and 95.6914 and 100.978 and 97.4052 and 99.447
- cell viability (SW48-G12D cells; [PhP072] 1.6e-7 M): 100.994 and 98.1219 and 99.0057 and 100.978 and 99.7022 and 99.9575
- cell viability (SW48-G12D cells; [PhP072] 8e-7 M): 99.8895 and 99.2267 and 100.552 and 98.9365 and 101.489
- cell viability (SW48-G12D cells; [PhP072] 4e-6 M): 98.5638 and 96.7962 and 95.0285 and 98.9365 and 100.723 and 98.6813
- cell viability (SW48-G12D cells; [PhP072] 2e-5 M): 91.4933 and 92.1561 and 91.9352 and 92.8111 and 94.0872 and 91.5349
- cell viability (SW48-G12D cells; [PhP072] 0.0001 M): 75.1427 and 76.0265 and 77.5732 and 78.5183 and 77.2421 and 80.3049

Source: article PMC11292009, “Mapping protein binding sites by photoreactive fragment pharmacophores” (Communications Chemistry, 2024)
